Results reported in patent US8106055B2, “Substituted amide compounds” (Gruenenthal GmbH, priority 2007, dated 2012).

Key:
[1] = biological target: T1, serotonin (5-HT) reuptake (Rattus norvegicus, UniProt P31652); assay: Inhibition of serotonin (5HT) reuptake in synaptosomes from rat brain; assay type: biochemical; details: test concentration of 10 μM
T1 construct: synaptosomes are freshly isolated from areas of the rat brain; from tissue; host or cells: rat brain synaptosomes (P2 fraction)
Summary of the method: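 Compounds screened at 10 μM and reported as percent inhibition of serotonin uptake. Uptake measured in a freshly prepared P2 synaptosomal fraction from rat brain.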

[2] = biological target: T2, human bradykinin 1 receptor (B1R) (Homo sapiens, UniProt P46663); assay: Functional investigation on the human bradykinin 1 receptor (B1R), Ca2+ FLIPR assay in CHO K1 hB1R cells; assay type: cell-based; details: B1R antagonism human; test substance 10 μM; Ca2+ FLIPR, CHO K1 hB1R cells
T2 construct: expressed in transfected cells; host or cells: CHO K1 cells
T2 sequence (P46663 1-353): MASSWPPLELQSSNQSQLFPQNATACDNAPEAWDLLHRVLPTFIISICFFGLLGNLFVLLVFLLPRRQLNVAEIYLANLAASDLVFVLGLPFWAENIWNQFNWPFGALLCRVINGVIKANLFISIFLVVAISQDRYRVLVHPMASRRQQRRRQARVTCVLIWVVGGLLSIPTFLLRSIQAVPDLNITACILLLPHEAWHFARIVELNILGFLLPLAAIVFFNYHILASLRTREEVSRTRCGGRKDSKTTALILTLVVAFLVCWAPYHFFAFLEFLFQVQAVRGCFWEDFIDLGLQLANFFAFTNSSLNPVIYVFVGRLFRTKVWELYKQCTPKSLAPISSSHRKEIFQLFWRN
Summary of the method: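 Peak Ca2+-dependent fluorescence in B1R-transfected CHO K1 cells measures antagonism of an EC80 agonist challenge given 10-20 min after compound. Agonist is Lys-Des-Arg9-bradykinin for human, Des-Arg9-bradykinin for rat receptor.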

T1 sequence (P31652 whole entry): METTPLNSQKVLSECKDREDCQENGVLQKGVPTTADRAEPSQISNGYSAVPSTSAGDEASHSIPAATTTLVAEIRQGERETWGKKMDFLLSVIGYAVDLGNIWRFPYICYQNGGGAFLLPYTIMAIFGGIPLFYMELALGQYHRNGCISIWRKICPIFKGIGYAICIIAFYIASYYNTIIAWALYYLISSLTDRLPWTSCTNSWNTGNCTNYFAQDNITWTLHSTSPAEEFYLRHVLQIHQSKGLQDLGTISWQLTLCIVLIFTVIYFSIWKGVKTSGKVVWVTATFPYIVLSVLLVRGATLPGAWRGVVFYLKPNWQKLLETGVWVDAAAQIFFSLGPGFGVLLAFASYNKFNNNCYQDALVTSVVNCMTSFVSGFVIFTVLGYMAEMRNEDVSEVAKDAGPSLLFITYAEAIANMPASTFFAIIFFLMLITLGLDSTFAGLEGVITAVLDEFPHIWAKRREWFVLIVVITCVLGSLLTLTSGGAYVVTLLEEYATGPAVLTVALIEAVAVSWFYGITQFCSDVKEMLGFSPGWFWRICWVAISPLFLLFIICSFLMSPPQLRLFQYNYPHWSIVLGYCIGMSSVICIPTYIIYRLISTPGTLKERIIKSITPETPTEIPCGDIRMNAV

Row | SMILES | 5-HT (inhibition of reuptake of serotonin, % inhibition) [1] [%] | B1R Ant. h [10 μM] % Inhibition [2] [%]
1 | CN(C)C(c1ccc(F)cc1)C1CCC(NC(=O)COC2CCN(S(=O)(=O)c3ccccc3)CC2)CC1 (stereo not shown) [Example 408] | 93 | −16
2 | COc1ccc(S(=O)(=O)N2CCCC2COCC(=O)NCCC2CCC(C(c3ccc(F)cc3)N(C)C)CC2)cc1 (stereo not shown) [Example 409] | 97 | 45
3 | CN(C)C(c1ccc(Cl)cc1)C1CCC(CCNC(=O)COC2CCCCC2N(C)S(=O)(=O)c2ccc(Cl)c(Cl)c2)CC1 (stereo not shown) [Example 410] | 78 | 1
4 | CN(C)C(c1ccc(Cl)cc1)C1CCC(CNC(=O)COCCN(C)S(=O)(=O)c2ccc(OC(F)(F)F)cc2)CC1 (stereo not shown) [Example 411] | 91 | 41
5 | COc1cc(C)c(S(=O)(=O)N2CCC(OCC(=O)NCCC3CCC(C(c4ccc(Cl)cc4)N(C)C)CC3)C2)c(C)c1C (stereo not shown) [Example 412] | 95 | 40
6 | CCN(CCOCC(=O)NCCC1CCC(C(c2ccc(F)cc2)N(C)C)CC1)S(=O)(=O)c1c(C)cc(OC)c(C)c1C (stereo not shown) [Example 413] | 96 | 96
7 | COc1cc(C)c(S(=O)(=O)N(CCOCC(=O)NCC2CCC(C(c3cccc(F)c3)N(C)C)CC2)Cc2ccccc2)c(C)c1C (stereo not shown) [Example 414] | 67 | 28
8 | CN(C)C(CCc1ccccc1)C1CCC(CNC(=O)COCC2CCCN2S(=O)(=O)c2ccc(Cl)c(Cl)c2)CC1 (stereo not shown) [Example 415] | 88 | 96
9 | Cc1cc(C)c(S(=O)(=O)N(C)CCOCC(=O)NCCC2CCC(C(c3ccc(Cl)cc3)N(C)C)CC2)c(C)c1 (stereo not shown) [Example 416] | 103 | 104
10 | COc1cc(C)c(S(=O)(=O)N2CCCC(OCC(=O)NCC3CCC(C(c4ccc(F)cc4)N(C)C)CC3)C2)c(C)c1C (stereo not shown) [Example 418] | 98 | 53
11 | COc1cc(C)c(S(=O)(=O)N(CCOCC(=O)NC2CCC(C(c3cccc(F)c3)N(C)C)CC2)Cc2ccccc2)c(C)c1C (stereo not shown) [Example 419] | 76 | 37
12 | COc1cc(C)c(S(=O)(=O)N(C)CCOCC(=O)NC2CCC(C(c3ccc(F)cc3)N(C)C)CC2)c(C)c1 (stereo not shown) [Example 422] | 81 | 104
13 | CN(C)C(c1ccc(F)cc1)C1CCC(NC(=O)COC2CCCN(S(=O)(=O)c3ccccc3)C2)CC1 (stereo not shown) [Example 423] | 95 | 4
14 | CN(C)C(c1ccc(F)cc1)C1CCC(CNC(=O)COCC2CCCN(S(=O)(=O)c3ccccc3)C2)CC1 (stereo not shown) [Example 424] | 96 | −12
15 | CN(C)C(c1ccc(Cl)cc1)C1CCC(CCNC(=O)COCC2CCCN(S(=O)(=O)c3ccccc3)C2)CC1 (stereo not shown) [Example 425] | 97 | 12
16 | CN(C)C(c1ccc(Cl)cc1)C1CCC(CCNC(=O)COCCN(Cc2ccccc2)S(=O)(=O)c2ccccc2)CC1 (stereo not shown) [Example 426] | 95 | −7
17 | COc1cc(C)c(S(=O)(=O)N2CCC(OCC(=O)NCC3CCC(C(c4ccc(F)cc4)N(C)C)CC3)C2)c(C)c1C (stereo not shown) [Example 427] | 94 | 76
18 | COc1cc(C)c(S(=O)(=O)N2CCC(OCC(=O)NCC3CCC(C(c4ccc(Cl)cc4)N(C)C)CC3)C2)c(C)c1C (stereo not shown) [Example 428] | 88 | 48
19 | COc1cc(C)c(S(=O)(=O)N2CCN(CCOCC(=O)NCC3CCC(C(c4ccc(Cl)cc4)N(C)C)CC3)CC2)c(C)c1C (stereo not shown) [Example 429] | 95 | 75

Row | SMILES | 5-HT (inhibition of reuptake of serotonin, % inhibition) [1] [%] | B1R Ant. h [10 μM] % Inhibition [2] [%]
20 | COc1ccc(S(=O)(=O)N2CCC(OCC(=O)NCCC3CCC(C(c4ccc(F)cc4)N(C)C)CC3)C2)cc1OC (stereo not shown) [Example 430] | 92 | −7
21 | CN(C)C(c1ccc(Cl)cc1)C1CCC(CCNC(=O)COC2CCN(S(=O)(=O)c3cccc(C(F)(F)F)c3)C2)CC1 (stereo not shown) [Example 431] | 93 | 25
22 | Cc1cc(C)c(S(=O)(=O)N2CCC(OCC(=O)NCC3CCC(C(c4ccc(F)cc4)N(C)C)CC3)C2)c(C)c1 (stereo not shown) [Example 432] | 82 | 61
23 | CN(C)C(c1ccc(F)cc1)C1CCC(CNC(=O)COCCN2CCN(S(=O)(=O)c3ccccc3)CC2)CC1 (stereo not shown) [Example 433] | 95 | −4
24 | CCN(CCOCC(=O)NCCC1CCC(C(c2ccc(Cl)cc2)N(C)C)CC1)S(=O)(=O)c1c(C)cc(OC)c(C)c1C (stereo not shown) [Example 434] | 82 | 47
25 | COc1cc(C)c(S(=O)(=O)N2CCCC(OCC(=O)NC3CCC(C(c4ccc(F)cc4)N(C)C)CC3)C2)c(C)c1C (stereo not shown) [Example 435] | 91 | 15
26 | COc1cc(C)c(S(=O)(=O)N(CCOCC(=O)NCCC2CCC(C(c3cccc(F)c3)N(C)C)CC2)Cc2ccccc2)c(C)c1C (stereo not shown) [Example 436] | 88 | 8
27 | CN(C)C(c1ccc(F)cc1)C1CCC(NC(=O)COCCN(C)S(=O)(=O)c2cccc(C(F)(F)F)c2)CC1 (stereo not shown) [Example 438] | 84 | 9
28 | CN(C)C(c1ccc(F)cc1)C1CCC(CNC(=O)COCCN(C)S(=O)(=O)c2ccc(OC(F)(F)F)cc2)CC1 (stereo not shown) [Example 439] | 94 | 44
29 | CN(C)C(c1ccc(Cl)cc1)C1CCC(CCNC(=O)COC2CCN(S(=O)(=O)c3ccc(F)cc3)C2)CC1 (stereo not shown) [Example 440] | 95 | 8
30 | COc1cc(C)c(S(=O)(=O)N2CCC(OCC(=O)NC3CCC(C(c4ccc(F)cc4)N(C)C)CC3)C2)c(C)c1 (stereo not shown) [Example 441] | 99 | 94
31 | CN(C)C(c1ccc(Cl)cc1)C1CCC(CCNC(=O)COCCN(C)S(=O)(=O)c2c(Cl)cc(Cl)cc2Cl)CC1 (stereo not shown) [Example 442] | 91 | 84
32 | CN(C)C(c1ccc(Cl)cc1)C1CCC(CCNC(=O)COC2CCN(S(=O)(=O)c3ccccc3)CC2)CC1 (stereo not shown) [Example 443] | 96 | 21
33 | CN(C)C(c1cccc(F)c1)C1CCC(CCNC(=O)COC2CCN(S(=O)(=O)c3ccccc3)CC2)CC1 (stereo not shown) [Example 444] | 96 | −20
34 | CN(C)C(CCc1ccccc1)C1CCC(CNC(=O)COCCN(C)S(=O)(=O)c2ccc(Cl)cc2)CC1 (stereo not shown) [Example 445] | 87 | 66
35 | CN(C)C(c1ccc(F)cc1)C1CCC(CCNC(=O)COCCN(C)S(=O)(=O)c2ccc(OC(F)(F)F)cc2)CC1 (stereo not shown) [Example 446] | 90 | 19
36 | Cc1ccc(S(=O)(=O)N2CCC(OCC(=O)NCC3CCC(C(c4ccc(F)cc4)N(C)C)CC3)C2)cc1 (stereo not shown) [Example 447] | 95 | 24
37 | Cc1ccc(S(=O)(=O)N(C)CCOCC(=O)NC2CCC(C(c3ccc(F)cc3)N(C)C)CC2)cc1 (stereo not shown) [Example 448] | 94 | 0
38 | COc1cc(C)c(S(=O)(=O)N2CCCC(OCC(=O)NCC3CCC(C(c4ccc(Cl)cc4)N(C)C)CC3)C2)c(C)c1C (stereo not shown) [Example 449] | 73 | 25
